The source of these data is US20250340552A1, “COMPOUNDS, COMPOSITIONS AND METHODS OF TREATING DISORDERS” (HOTSPOT THERAPEUTICS, INC., priority 2022, published 2025).

As a reminder, the DC50 is the concentration at which degradation of the target reaches its halfway point. Broadly, the Dmax is the greatest extent of degradation seen.

The assay addresses T1, Cbl-B (Homo sapiens, UniProt Q13191).
T1 construct: MSD-Based Assay for Degradation of Cbl-B in THP-1 Cells; endogenous in cells; host or cells: THP-1 (title) / Jurkat (protocol text)
As to the kind of experiment: MSD-based assay for degradation of Cbl-B in THP-1 cells. It is filed as cell-based. On the procedure:
MSD-Based Assay for Degradation of Cbl-B in THP-1 Cells
Assay plates were then shaken at 600 rpm for 5 minutes, followed by incubation for 24 hours in the 37° C. TC incubator. […] Cell debris was then spun down at maximum speed (about 3200 g) for 30 min and lysates frozen in the −80° C. fridge. Meanwhile, MSD plates (L15XA-3) were coated overnight at 4° C. with 1 ug/mL capture antibody (Anti-Cbl-B antibody, 246C5a and Mouse mAB, ab54362). […] Blocking buffer was 3% Blocker A (MSD, R93BA-4) in TBST. Plates were washed 3× with 150 ul/well of 1×TBST and sample lysates (70 ul/well) then added, followed by shaking for 1 hr at RT, 600 rpm. […] Plates were again washed 3× with 150 ul/well of 1×TBST, followed by addition of Secondary Detection antibody, SULFO-TAG anti-species antibody (Anti Rabbit Antibody (R32AB-5) MSD, R32AB-1) at a final concentration of 1 ug/ml and 25 uL/well, followed by shaking for 1 hr at RT, 600 rpm. Plates were again washed 3× with 150 ul/well of 1×TBST, followed by addition of 1×MSD reading buffer (MSD, R92TC-2), 150 ul/well, diluted from 4× with water.
Compound Dmax were binned into A through D as follows: A indicates >70%, B indicates 50-70%, C indicates 30-50%, D indicates <30%.

Setting [1] is: Cbl-B degradation, Jurkat cells seeded (heading: THP-1 cells), 24 hours incubation, MSD readout.
The mark [2] stands for this setting: Cbl-B degradation, Jurkat cells seeded (heading: THP-1 cells), 24 hours incubation, MSD readout, read-out: Dmax.

Read-outs that look alike come from different tables or passages of the source.

T1 sequence (Q13191 whole entry): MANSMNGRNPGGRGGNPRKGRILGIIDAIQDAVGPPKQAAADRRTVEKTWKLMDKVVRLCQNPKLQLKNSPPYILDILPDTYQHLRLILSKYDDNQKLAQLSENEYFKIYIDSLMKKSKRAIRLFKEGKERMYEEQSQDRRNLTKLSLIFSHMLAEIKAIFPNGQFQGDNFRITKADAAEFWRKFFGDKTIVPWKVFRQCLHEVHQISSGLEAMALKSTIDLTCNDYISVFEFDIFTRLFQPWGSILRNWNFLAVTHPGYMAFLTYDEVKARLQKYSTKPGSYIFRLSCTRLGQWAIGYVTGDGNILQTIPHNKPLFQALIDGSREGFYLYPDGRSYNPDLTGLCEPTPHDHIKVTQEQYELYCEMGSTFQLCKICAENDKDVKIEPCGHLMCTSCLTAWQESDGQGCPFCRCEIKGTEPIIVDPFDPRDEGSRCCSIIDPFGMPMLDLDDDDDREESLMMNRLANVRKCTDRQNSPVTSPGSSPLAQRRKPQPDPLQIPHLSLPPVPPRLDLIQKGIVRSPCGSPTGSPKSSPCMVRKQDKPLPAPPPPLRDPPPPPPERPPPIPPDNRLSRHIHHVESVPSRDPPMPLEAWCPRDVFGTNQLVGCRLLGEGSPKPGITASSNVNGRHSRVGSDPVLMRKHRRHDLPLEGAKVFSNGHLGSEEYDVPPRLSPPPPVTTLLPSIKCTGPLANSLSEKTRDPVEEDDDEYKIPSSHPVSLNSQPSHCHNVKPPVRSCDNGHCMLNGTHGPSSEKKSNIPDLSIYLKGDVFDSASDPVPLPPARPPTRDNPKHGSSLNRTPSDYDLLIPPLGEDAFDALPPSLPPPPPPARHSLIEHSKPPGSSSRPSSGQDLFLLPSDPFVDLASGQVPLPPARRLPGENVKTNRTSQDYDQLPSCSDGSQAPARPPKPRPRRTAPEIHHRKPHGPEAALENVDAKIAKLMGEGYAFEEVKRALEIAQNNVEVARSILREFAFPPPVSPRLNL

`Cn1cnnc1[C@@H](c1cccc(-n2cc3c(C(F)(F)F)cc(CN4CCC(OCCOCc5ccc(COCCNc6cccc7c6C(=O)N(C6CCC(=O)NC6=O)C7=O)cc5)CC4)cn3c2=O)c1)C1CCC1` (single isomer, unassigned) [Compound 5] yielded a DC50 under setting [1] of over 10000 nM. Under setting [2], the Dmax was under 30%.
`Cn1cnnc1[C@H](c1cccc(-n2cc3c(C(F)(F)F)cc(CN4CCC(OCCOCc5ccc(COCCNc6cccc7c6C(=O)N(C6CCC(=O)NC6=O)C7=O)cc5)CC4)cn3c2=O)c1)C1CCC1` (single isomer, unassigned) [Compound 6] came in with a DC50 under setting [1] of 30 to 300 nM. Under setting [2], the Dmax lay in the range of 50 to 70%.
`Cn1cnnc1[C@@H](c1cccc(-n2cc3c(C(F)(F)F)cc(CN4CCC(N5CCN(c6ccc7c(c6)CN([C@@H]6CCC(=O)NC6=O)C7=O)CC5)CC4)cn3c2=O)c1)C1CCC1` (single isomer, unassigned) [Compound 40]: the DC50 under setting [1] fell in the range of 1000 to 10000 nM. This compound yielded a Dmax (THP-1) of under 30%.
Under setting [1], `Cn1cnnc1[C@@H](c1cccc(-n2cc3c(C(F)(F)F)cc(CN4CCC(N5CCN(c6ccc7c(c6)CN([C@H]6CCC(=O)NC6=O)C7=O)CC5)CC4)cn3c2=O)c1)C1CCC1` (single isomer, unassigned) [Compound 41] returned a DC50 of 1000 to 10000 nM. Also, under setting [2], the Dmax was under 30%.
For `Cn1cnnc1CC1(c2cccc(-n3cc4c(C(F)(F)F)cc(CN5CCC(OCCN6CCC(CN7CCN(c8ccc9c(c8)CN([C@@H]8CCC(=O)NC8=O)C9=O)CC7)CC6)CC5)cn4c3=O)c2)COC1` (single isomer, unassigned) [Compound 47], the DC50 under setting [1] is 300 to 1000 nM. The maximal degradation (Dmax) under setting [2] was 50 to 70%.
For the compound `Cn1cnnc1[C@@H](c1cccc(-n2cc3c(C(F)(F)F)cc(CN4CCC(OCCN5CCC(CN6CCN(c7ccc8c(c7)CN([C@@H]7CCC(=O)NC7=O)C8=O)CC6)CC5)CC4)cn3c2=O)c1)C1CCC1` (single isomer, unassigned) [Compound 48], the DC50 under setting [1] was 300 to 1000 nM. Under setting [2], the Dmax lay in the range of 30 to 50%.
For `Cn1cnnc1CC1(c2cccc(-n3cc4c(C(F)(F)F)cc(CN5CCC[C@@H](OCCN6CCC(CN7CCN(c8ccc9c(c8)CN([C@@H]8CCC(=O)NC8=O)C9=O)CC7)CC6)C5)cn4c3=O)c2)COC1` (single isomer, unassigned) [Compound 49], the DC50 under setting [1] was 300 to 1000 nM. The Dmax under setting [2] was in the range of 50 to 70%.
As to `Cn1cnnc1CC1(c2cccc(-n3cc4c(C(F)(F)F)cc(CN5CCC[C@@H](OCCN6CCC(CN7CCN(c8ccc9c(c8)CN([C@H]8CCC(=O)NC8=O)C9=O)CC7)CC6)C5)cn4c3=O)c2)COC1` (single isomer, unassigned) [Compound 50], under setting [1], the DC50 fell in the range of 30 to 300 nM. In addition, the Dmax under setting [2] was over 70%.
In the same order, the values of `Cn1cnnc1CC1(c2cccc(-n3cc4c(C(F)(F)F)cc(CN5CCC[C@H](OCCN6CCC(CN7CCN(c8ccc9c(c8)CN([C@@H]8CCC(=O)NC8=O)C9=O)CC7)CC6)C5)cn4c3=O)c2)COC1` (single isomer, unassigned) [Compound 51] are 300 to 1000 nM and 50 to 70%.
In the same order, the values of `Cn1cnnc1CC1(c2cccc(-n3cc4c(C(F)(F)F)cc(CN5CCC[C@H](OCCN6CCC(CN7CCN(c8ccc9c(c8)CN([C@H]8CCC(=O)NC8=O)C9=O)CC7)CC6)C5)cn4c3=O)c2)COC1` (single isomer, unassigned) [Compound 52] are 30 to 300 nM and over 70%.
For `Cn1cnnc1[C@@H](c1cccc(-n2cc3c(C(F)(F)F)cc(CN4CCC[C@@H](OCCN5CCC(CN6CCN(c7ccc8c(c7)CN([C@@H]7CCC(=O)NC7=O)C8=O)CC6)CC5)C4)cn3c2=O)c1)C1CCC1` (single isomer, unassigned) [Compound 53], the DC50 under setting [1] lay in the range of 1000 to 10000 nM. The same compound yielded a Dmax (THP-1) of 50 to 70%.
As for `Cn1cnnc1[C@@H](c1cccc(-n2cc3c(C(F)(F)F)cc(CN4CCC[C@@H](OCCN5CCC(CN6CCN(c7ccc8c(c7)CN([C@H]7CCC(=O)NC7=O)C8=O)CC6)CC5)C4)cn3c2=O)c1)C1CCC1` (single isomer, unassigned) [Compound 54], the 50% degradation concentration (DC50) under setting [1] was 30 to 300 nM. Under setting [2], the Dmax was over 70%.
In the case of `Cn1cnnc1CC1(c2cccc(-n3cc4c(C(F)(F)F)cc(CN5CCN(CCN6CCC(CN7CCN(c8ccc9c(c8)CN([C@@H]8CCC(=O)NC8=O)C9=O)CC7)CC6)CC5)cn4c3=O)c2)COC1` (single isomer, unassigned) [Compound 61], under setting [1], the DC50 lay within 30 to 300 nM. The same compound yielded a Dmax (THP-1) of 50 to 70%.
Turning to `Cn1cnnc1[C@@H](c1cccc(-n2cc3c(C(F)(F)F)cc(CN4CCN(CCN5CCC(CN6CCN(c7ccc8c(c7)CN([C@H]7CCC(=O)NC7=O)C8=O)CC6)CC5)CC4)cn3c2=O)c1)C1CCC1` (single isomer, unassigned) [Compound 64], the DC50 under setting [1] was under 30 nM. Moreover, the Dmax under setting [2] was over 70%.
The compound `Cn1cnnc1CC1(c2cccc(-n3cc4c(C(F)(F)F)cc(CN5CCC(OCCCN6CCN(c7ccc8c(c7)CN([C@@H]7CCC(=O)NC7=O)C8=O)CC6)CC5)cn4c3=O)c2)COC1` (single isomer, unassigned) [Compound 67] registered a DC50 under setting [1] of over 10000 nM. This compound had a Dmax (THP-1) of under 30%.
Regarding `Cn1cnnc1CC1(c2cccc(-n3cc4c(C(F)(F)F)cc(CN5CCC(OCCCN6CCN(c7ccc8c(c7)CN([C@H]7CCC(=O)NC7=O)C8=O)CC6)CC5)cn4c3=O)c2)COC1` (single isomer, unassigned) [Compound 68], the DC50 under setting [1] was over 10000 nM. In addition, under setting [2], the Dmax is under 30%.
Consider `Cn1cnnc1[C@@H](c1cccc(-n2cc3c(C(F)(F)F)cc(CN4CCC(OCCCN5CCN(c6ccc7c(c6)CN([C@@H]6CCC(=O)NC6=O)C7=O)CC5)CC4)cn3c2=O)c1)C1CCC1` (single isomer, unassigned) [Compound 71], for which the DC50 under setting [1] is over 10000 nM. For the same compound, under setting [2], the greatest degradation seen (Dmax) was under 30%.
Taken in the same sequence, the figures for `Cn1cnnc1[C@@H](c1cccc(-n2cc3c(C(F)(F)F)cc(CN4CCC(OCCCN5CCN(c6ccc7c(c6)CN([C@H]6CCC(=O)NC6=O)C7=O)CC5)CC4)cn3c2=O)c1)C1CCC1` (single isomer, unassigned) [Compound 72] were over 10000 nM and 30 to 50%.
Regarding `Cn1cnnc1CC1(c2cccc(-n3cc4c(C(F)(F)F)cc(CN5CCC(OCCN6CCN(CC7CCN(c8ccc9c(c8)CN([C@@H]8CCC(=O)NC8=O)C9=O)CC7)CC6)CC5)cn4c3=O)c2)COC1` (single isomer, unassigned) [Compound 77], the DC50 under setting [1] was in the range of 300 to 1000 nM. The Dmax (THP-1) was in the range of 30 to 50%.
Under setting [1], `Cn1cnnc1CC1(c2cccc(-n3cc4c(C(F)(F)F)cc(CN5CCC(OCCN6CCN(CC7CCN(c8ccc9c(c8)CN([C@H]8CCC(=O)NC8=O)C9=O)CC7)CC6)CC5)cn4c3=O)c2)COC1` (single isomer, unassigned) [Compound 78] registered a DC50 of under 30 nM. The Dmax under setting [2] lay in the range of 50 to 70%.
`Cn1cnnc1[C@@H](c1cccc(-n2cc3c(C(F)(F)F)cc(CN4CCC(OCCN5CCN(CC6CCN(c7ccc8c(c7)CN([C@@H]7CCC(=O)NC7=O)C8=O)CC6)CC5)CC4)cn3c2=O)c1)C1CCC1` (single isomer, unassigned) [Compound 79] had a DC50 under setting [1] of 1000 to 10000 nM. For the same compound, under setting [2], the Dmax fell in the range of 30 to 50%.
Under setting [1], `Cn1cnnc1[C@@H](c1cccc(-n2cc3c(C(F)(F)F)cc(CN4CCC(OCCN5CCN(CC6CCN(c7ccc8c(c7)CN([C@H]7CCC(=O)NC7=O)C8=O)CC6)CC5)CC4)cn3c2=O)c1)C1CCC1` (single isomer, unassigned) [Compound 80] registered a DC50 of under 30 nM. Also, the Dmax under setting [2] fell in the range of 50 to 70%.
In turn, `Cn1cnnc1[C@@H](c1cccc(-n2cc3c(C(F)(F)F)cc(CN4CCC[C@H](OCc5ccc(CN6CCN(c7ccc8c(c7)CN([C@@H]7CCC(=O)NC7=O)C8=O)CC6)cc5)C4)cn3c2=O)c1)C1CCC1` (single isomer, unassigned) [Compound 81] had a 50% degradation concentration (DC50) under setting [1] of over 10000 nM.
As for `Cn1cnnc1CC1(c2cccc(-n3cc4c(C(F)(F)F)cc(CN5CCC[C@H](OCc6ccc(CN7CCN(c8ccc9c(c8)CN([C@@H]8CCC(=O)NC8=O)C9=O)CC7)cc6)C5)cn4c3=O)c2)COC1` (single isomer, unassigned) [Compound 83], the DC50 under setting [1] was over 10000 nM. In addition, under setting [2], the Dmax was under 30%.
`Cn1cnnc1CC1(c2cccc(-n3cc4c(C(F)(F)F)cc(CN5CCC[C@H](OCc6ccc(CN7CCN(c8ccc9c(c8)CN([C@H]8CCC(=O)NC8=O)C9=O)CC7)cc6)C5)cn4c3=O)c2)COC1` (single isomer, unassigned) [Compound 84] returned a DC50 under setting [1] of 30 to 300 nM. In addition, the Dmax under setting [2] is 30 to 50%.
Under setting [1], `Cn1cnnc1[C@@H](c1cccc(-n2cc3c(C(F)(F)F)cc(CN4CCC(CN5CCN(c6ccc7c(c6)CN([C@@H]6CCC(=O)NC6=O)C7=O)CC5)CC4)cn3c2=O)c1)C1CCC1` (single isomer, unassigned) [Compound 85] registered a DC50 of over 10000 nM. Besides, the Dmax under setting [2] is 30 to 50%.
With `Cn1cnnc1[C@@H](c1cccc(-n2cc3c(C(F)(F)F)cc(CN4CCC(CN5CCN(c6ccc7c(c6)CN([C@H]6CCC(=O)NC6=O)C7=O)CC5)CC4)cn3c2=O)c1)C1CCC1` (single isomer, unassigned) [Compound 86], under setting [1], the DC50 is 1000 to 10000 nM. Under setting [2], the Dmax lay in the range of 30 to 50%.
